{"source": "patent US20230136075A1", "about": "“TREATMENT FOR SEPSIS-INDUCED ORGAN DYSFUNCTION” (The Florey Institute of Neuroscience and Mental Health, priority 2020, published 2023)", "key": {"[1]": {"test_system": "ovine sepsis induced by intravenous infusion of live E. coli", "from_the_text": "Using this model, the inventors have investigated the effect of mega dose intravenous vitamin C therapy on various parameters indicative of the progression of sepsis in sheep (Merino ewes, 35-45 kg; 1.5-2.0 years old). Sheep were divided into two groups, a vitamin C (sodium ascorbate) therapy group and a vehicle group as a control. Experimental protocols were approved by the Animal Ethics Committee of the Florey Institute of Neuroscience and Mental Health under guidelines of the National Health and Medical Research Council of Australia.\nPreparatory surgical procedures were carried out as described in Lankadeva et al. (2018b). Briefly, two preparatory surgical procedures were performed under general anaesthesia. First, a carotid artery was exteriorised into a skin fold to form a carotid arterial loop to facilitate cannulation for measurement of arterial pressure and heart rate, and for blood sampling. During the same surgical procedure, a flow probe was placed around the pulmonary artery to measure cardiac output. Animals were allowed 3-4 weeks of recovery. Second, a flow probe was implanted around a renal artery to measure renal blood flow, a renal vein was cannulated for blood sampling and fibre optic probes were inserted into the renal cortex, renal medulla (within kidneys) and parietal cortex (brain) to measure tissue perfusion, oxygen tension and temperature.\nDuring the second surgical procedure cannulae were implanted in the carotid artery for arterial pressure measurement and blood sampling and the jugular vein for infusion of fluids, vasopressors, Escherichia coli, sodium ascorbate and blood sampling, and a Foley catheter was inserted into the bladder to collect urine and monitor hourly urine output.\nFollowing three days of recovery from the second surgical procedure, the experimental protocol (see FIG. 1) was initiated in conscious sheep, to avoid the confounding effects of general anaesthesia. Animals daily food and water intake and urine output was measured on a 24-hour basis during the course of the 5-day protocol.\nFirst, a 24-hour baseline period was commenced, which included measurement of systemic haemodynamics, renal and brain perfusion and oxygenation, arterial, central venous and renal venous blood gases and lactate, and urine output. Arterial blood and urine samples were collected at set times during the experimental period.\nAfter establishment of the 24-hour baseline period, gram-negative sepsis was induced by intravenous infusion of live E. coli (isolated from a patient with sepsis at Austin Health) as described in Lankadeva et al. (2018b), administered as a loading (bolus) infusion of 2.8×10^9 colony-forming units (CFU) over 30-minutes followed by a continuous infusion of 1.26×10^9 CFU/h for 30.5 hours. No prophylactic antibiotics, sedative or analgesic agents were administered during this protocol. The description in the following paragraphs is with reference to the protocol as shown schematically in FIG. 1.\nAt 23 hours of sepsis, when sheep had fulfilled the clinical criteria for sepsis (i.e. established hypotension, tachycardia, fever, lung injury, tachypnoea, hyperlactatemia and stage 1-2 acute kidney injury) animals were resuscitated with 30 mL/kg balanced crystalloid sodium lactate (Hartmann's solution infused at approximately 2500 ml/hr) for 30 mins, from 23-23.5 hours of sepsis.\nA blocked randomization design was used to allocate sheep to treatment with sodium ascorbate or vehicle."}, "[2]": {"test_system": "septic human patient with severe COVID-19", "test": "Mega-dose sodium ascorbate in one septic patient with severe COVID-19 (Example 2)", "assay_type": "in vivo", "from_the_text": "FIG. 6. Changes in systemic hemodynamics and renal function in response to mega-dose sodium ascorbate (Na Asc) treatment in one septic human patient with a severe case of COVID-19 disease 2019 (n=1). Norepinephrine dose (A), arterial blood oxygen tension (PO2) (filled squares) and inspired oxygen fraction (open circles) (B), mean arterial pressure (C), serum creatinine (D), heart rate (E), and urine output (F) are presented at pre-treatment (time 0), after a 30-min infusion of Na Asc bolus therapy (BT, 30 g), and then at hourly intervals during an infusion of Na Asc for 6.5 hr (4.6 g/hr).\nA person was admitted to ICU with severe COVID-19 disease. The patient presented with acute respiratory distress syndrome (ARDS), vasodilatory shock and acute kidney injury, with a temperature of 40° C. The patient was intubated and placed on a ventilator. At noon, their urinary output was 10 ml/hr.\nThe patient (weighing approximately 80 kg) was administered 30 g of intravenous sodium ascorbate over 30 minutes beginning at 1 pm, followed by an infusion of 30 g sodium ascorbate over the next 6 hours."}, "[3]": {"settings": "sodium ascorbate infusion, 24-31 hr of sepsis"}, "[4]": {"settings": "sodium ascorbate infusion, 24-31 hr of sepsis, maintained for the following 2 days"}}, "note": "Like-named read-outs stand apart in the source and are kept apart here."}
{"smiles": "O=C1O[C@H]([C@@H](O)CO)C([O-])=C1O.[Na+]", "note": "[sodium ascorbate]", "values": [{"measurement": "clinical state of septic sheep", "setting": "[1]; after infusion of sodium ascorbate for 3 hours, 0.5 g/kg bolus then 0.5 g/kg/hr iv, n=5", "value": "dramatically improved"}, {"measurement": "renal histology: acute tubular necrosis or interstitial fibrosis in renal cortex, corticomedullary junction or medulla", "setting": "[1]; at 48 hours of recovery", "value": "no acute tubular necrosis or interstitial fibrosis"}, {"measurement": "dose of norepinephrine required to maintain mean arterial pressure", "setting": "[1]; by 4 hours of sodium ascorbate infusion, n=5", "value": "not required in four of five sheep"}, {"measurement": "body temperature", "setting": "[1]; during sodium ascorbate therapy, 24-31 hr of sepsis, septic fever 41.4±0.2", "value": "~39", "unit": "°C"}, {"measurement": "arterial blood potassium (hypokalemia)", "setting": "[1]; infusion of sodium ascorbate", "value": "3.14 ± 0.16", "unit": "mmol/L"}, {"measurement": "arterial blood sodium (hypernatremia)", "setting": "[1]; infusion of sodium ascorbate", "value": "153.6 ± 1.7", "unit": "mmol/L"}, {"measurement": "ischemia and hypoxia in the brain", "setting": "[1]; sodium ascorbate 3.75 g/kg intravenous", "value": "a reversal of ischemia and hypoxia in the brain"}, {"measurement": "arterial blood pH", "setting": "[1]; [3]", "value": "no effects"}, {"measurement": "cardiac output", "setting": "[1]; [3]", "value": "significant, progressive decreases"}, {"measurement": "creatinine clearance", "setting": "[1]; [3]", "value": "significantly increased"}, {"measurement": "fraction excretion of potassium", "setting": "[1]; [3]", "value": "did not alter"}, {"measurement": "fractional excretion of sodium", "setting": "[1]; [3]", "value": "significantly increased"}, {"measurement": "heart rate", "setting": "[1]; [3]", "value": "significant, progressive decreases"}, {"measurement": "partial pressure of carbon dioxide", "setting": "[1]; [3]", "value": "no effects"}, {"measurement": "plasma creatinine", "setting": "[1]; [3]", "value": "corrected the increased plasma creatinine to below baseline levels"}, {"measurement": "renal blood flow", "setting": "[1]; [3]", "value": "decreased toward healthy levels"}, {"measurement": "renal cortical tissue PO2", "setting": "[1]; [3]", "value": "Neither fluid bolus therapy, sodium ascorbate, nor norepinephrine had significant effects"}, {"measurement": "renal vascular conductance", "setting": "[1]; [3]", "value": "decreased toward healthy levels"}, {"measurement": "level of peripheral vasoconstriction", "setting": "[1]; sodium ascorbate infusion, 24-31 hr of sepsis, despite reduced norepinephrine dose", "value": "increased"}, {"measurement": "renal medullary PO2", "setting": "[1]; [4]", "value": "increased further throughout the infusion"}, {"measurement": "renal medullary perfusion", "setting": "[1]; [4]", "value": "improved toward preseptic levels"}, {"measurement": "arterial lactate", "setting": "[1]; sodium ascorbate infusion, 2.0±0.2 mmol/L at 23 hours of sepsis", "value": "significant, progressive reduction"}, {"measurement": "arterial PO2", "setting": "[1]; sodium ascorbate infusion, 80±3 at 23 hours of sepsis", "value": "96.5±3.4", "unit": "mm Hg"}, {"measurement": "increase in plasma aspartate aminotransferase during sepsis", "setting": "[1]; sodium ascorbate treatment", "value": "significantly reduced"}, {"measurement": "increase in plasma bilirubin during sepsis", "setting": "[1]; sodium ascorbate treatment", "value": "significantly reduced"}, {"measurement": "urine flow", "setting": "[1]; the 2 days following sodium ascorbate infusion", "value": "remained at normal baseline levels"}, {"measurement": "urine flow", "setting": "[1]; within 30 minutes of sodium ascorbate infusion, remained high throughout the infusion", "value": "greater than 10 mL/kg/hr"}, {"measurement": "urinary output", "setting": "[2]; 1st hour post initiation of treatment, 10 ml/hr prior to treatment", "value": 175, "unit": "mL/h"}, {"measurement": "urinary output", "setting": "[2]; 2nd hour post initiation of treatment", "value": 160, "unit": "mL/h"}, {"measurement": "urinary output", "setting": "[2]; 3rd hour post initiation of treatment", "value": 400, "unit": "mL/h"}, {"measurement": "urinary output", "setting": "[2]; 4th hour post initiation of treatment", "value": 180, "unit": "mL/h"}, {"measurement": "urinary output", "setting": "[2]; 5th hour post initiation of treatment", "value": 125, "unit": "mL/h"}, {"measurement": "urinary output", "setting": "[2]; 6th hour post initiation of treatment", "value": 145, "unit": "mL/h"}, {"measurement": "arterial blood oxygen levels", "setting": "[2]; after 6 hours of sodium ascorbate treatment, 65 pre-treatment, FiO2:40%", "value": 90, "unit": "mm Hg"}, {"measurement": "time to extubation", "setting": "[2]; after the treatment (intensive care day 15)", "value": 12, "unit": "days"}, {"measurement": "time to discharge from hospital without any complications", "setting": "[2]; after treatment", "value": 22, "unit": "days"}, {"measurement": "lactate", "setting": "[2]; during the treatment, decreased from 2.6", "value": 1.9, "unit": "mmol/L"}, {"measurement": "FiO2", "setting": "[2]; during the treatment, dropped from 0.45, positive end-expiratory pressure 14 cm H2O", "value": 0.30}, {"measurement": "heart rate", "setting": "[2]; during the treatment, dropped from 130", "value": 105, "unit": "beats/min"}, {"measurement": "time in which blood pressure normalised, vasopressor requirements reduced and renal function improved", "setting": "[2]; human patient with COVID-19, mega dose intravenous vitamin C", "value": "less than six hours"}, {"measurement": "urine flow", "setting": "[2]; increase during the treatment, from 10", "value": 400, "unit": "mL/h"}, {"measurement": "plasma creatinine", "setting": "[2]; over the course of sodium ascorbate administration (30 g over 30 minutes then 30 g infusion), 118 before treatment, n=1", "value": 84, "unit": "µmol/L"}, {"measurement": "norepinephrine infusion", "setting": "[2]; over the course of sodium ascorbate administration, 8 before", "value": 0, "unit": "µg/min"}]}
